Source: US7943606B2, “Compositions and methods to control abnormal cell growth” (CanCure Laboratories, LLC, priority 2005, dated 2011)
Where “and” joins values, the source holds several entries; their conditions need not be identical. Equal entries are not always repeated.

What was measured:
[1] = system: HaCaT keratinocytes; test: Viability of HaCaT keratinocytes; type: cell-based
Experimental: To quantify cell death, around the time when significant and characteristic morphological changes took place, cells were pulse-labeled for 10 minutes with [^3H]thymidine to measure DNA activity as described elsewhere [Tomono, M. and Kiss, Z. (1995), “Ethanol enhances the stimulatory effects of insulin and insulin-like growth factor-I on DNA synthesis in NIH 3T3 fibroblasts,” Biochem. Biophys. Res. Commun. 208, 63-67]. Also, cells were collected as suspensions using trypsin, an established method in cell biology, followed by re-plating of cells in fresh tissue culture medium. If no viable cells were obtained after one week in culture, it meant that the cells at the time of re-plating were dead. Survival values obtained with untreated cells were considered 100%. For the determination of relative number of viable cells after treatments, in most cases the MTT assay was used. This calorimetric assay is based on the ability of living cells, but not dead cells, to reduce 3-(4,5-dimethyl thiazol-2-yl)-2,5-diphenyltetrazolium bromide [Carmichael, J, De Graff, W. G., Gazdar, A. F., Minna, J. D. and Mitchell, J. B. (1987), “Evaluation of tetrazolium-based semi-automated calorimetric assay: Assessment of chemosensitivity testing,” Cancer Res. 47, 936-942]. For this assay, cells were plated in 96-well plates, and the MTT assay was performed both in untreated and treated cell cultures. The MTT assay also was performed at the start of treatments to allow assessment of proliferation rates in the control and treated cell cultures.
HaCaT keratinocytes, frequently used immortalized model cells for studying psoriatic keratinocytes, and HTB-157 human fetus lung fibroblasts were cultured in 10% FBS-containing Dulbecco's modified Eagle's medium (DMEM). Cells were distributed in 96-well plates; when cells were 50-60% confluent, the medium was changed for fresh 10% serum-containing medium, followed by incubations for 48 hours in the absence (□) or presence of 50 μM CCDTHT ? , or 100 μM CCDTHT (▪). The MTT assay was used to determine cell viability. […]

[2] = system: U-87 cells; test: Viability of U-87 malignant glioma cells (MTT assay); type: cell-based, human; conditions: 100-200 μM, 72 hours
Experimental: To quantify cell death, around the time when significant and characteristic morphological changes took place, cells were pulse-labeled for 10 minutes with [^3H]thymidine to measure DNA activity as described elsewhere [Tomono, M. and Kiss, Z. (1995), “Ethanol enhances the stimulatory effects of insulin and insulin-like growth factor-I on DNA synthesis in NIH 3T3 fibroblasts,” Biochem. Biophys. Res. Commun. 208, 63-67]. Also, cells were collected as suspensions using trypsin, an established method in cell biology, followed by re-plating of cells in fresh tissue culture medium. If no viable cells were obtained after one week in culture, it meant that the cells at the time of re-plating were dead. Survival values obtained with untreated cells were considered 100%. For the determination of relative number of viable cells after treatments, in most cases the MTT assay was used. This calorimetric assay is based on the ability of living cells, but not dead cells, to reduce 3-(4,5-dimethyl thiazol-2-yl)-2,5-diphenyltetrazolium bromide [Carmichael, J, De Graff, W. G., Gazdar, A. F., Minna, J. D. and Mitchell, J. B. (1987), “Evaluation of tetrazolium-based semi-automated calorimetric assay: Assessment of chemosensitivity testing,” Cancer Res. 47, 936-942]. For this assay, cells were plated in 96-well plates, and the MTT assay was performed both in untreated and treated cell cultures. […]

[3] = system: human leukemia xenografts (HL-60); test: HL-60 human leukemia xenograft model: tumor volume and survival; type: in vivo, mouse
Excerpt: Tumors were developed in first generation hybrid BDF1 (C57 B1 female×DBA/2 male) adult female mice kept at specified pathogen free (SPF) hygienic level. Suspensions of HL-60 human leukemia cells, or approximately 0.1 cm^3 volume of tumor tissue derived from HT-168 human melanoma, PC-3 human prostate adenocarcinoma, T47D human breast carcinoma, MXT mouse mammary cancer, or mouse B16 melanoma cells were implanted subcutaneously to develop the tumors. After 12-18 days when the tumor-bearing mice were first treated, the size of the tumors was in the 0.2-0.4 cm^3 range. All compounds used were dissolved in physiological (0.9%) saline (NaCl), and the agents, alone or in combinations, were applied subcutaneously or intraperitoneally in 50 μl volume. Tumor volume was determined by calipers in three dimensions; this technique is well known to one having ordinary skill in the art. Tumor volume was calculated according to the generally accepted formula: V=a^2×b×π/6, where “a” and “b” mean the shortest and longest diameter, respectively, of the measured tumor.
The HL-60 human leukemia model was developed and treated as described above. On day 12 the mice either remained untreated (Group 1) or were treated with 4.6 mg/kg CCDTHT (Group 2) or 4.6 mg/kg CCDTHT+15 mg/kg highly purified PALP (Group 3). Both CCDTHT and PALP were administered subcutaneously for three 5-day cycles with 2 resting days included between each 5-day cycle. In each group 7 mice were included.

[4] = Body weight of animals in the MXT tumor model; type: in vivo, mouse; conditions: Example 31, CisPt 2 mg/kg i.p. and/or CCDTHT 4.6 mg/kg s.c.
Experimental: The mouse mammary MXT tumor was developed as described above. […] CCDTHT and CisPt were administered subcutaneously and intraperitoneally, respectively, once daily for 10 days, including a 2-day rest period after 5 days of treatment (i.e., the last treatment was on day 19). Each group consisted of 7 animals, and the mean values±std. dev. for tumor volumes and body weight are shown in TABLE 4 and TABLE 5, respectively.
The mouse mammary MXT tumor model was developed and treated as described above. […] CisPt and PALP were administered intraperitoneally and subcutaneously, respectively, seven times on every second day (i.e., treatments were terminated on day 21). Each group included 7 animals; the mean values±std. dev. for tumor volumes and body weight are shown in TABLE 6 and TABLE 7, respectively.
The mouse mammary MXT tumor model was developed and treated as described above. […] In each group 7 mice were included. The mean values±std. dev. for tumor volumes and body weights are shown in TABLE 9 and TABLE 10, respectively.

[5] = CCDTHT 4.6 mg/kg s.c. without or with PALP 15 mg/kg s.c., 5-day cycles

CC[N+](C)(CC)CCOCc1ccc2sc3ccccc3c(=O)c2c1.[I-] [CCDTHT, N,N-diethyl-N-methyl-2-[(9-oxo-9H-thioxanthen-2-yl)methoxy]-ethanaminium iodide]
reduction in the number of viable HaCaT cells ([1]; 50-100 μM, 48 hours, MTT): 85-98% and 85-100% | inhibition at 100 µM ([1]; Homo sapiens, HaCaT, 48 h, read-out: inhibition of DNA synthesis, HaCaT): ~95% | viable cells after re-plating of treated HaCaT cells ([1]; re-plated after treatment, fresh medium for 1 week): no viable cells were found | number of viable U-87 cells [2]: sharply decrease | Tumor volume, Day 16 [3, 5]: 1.26 ± 0.73 cm^3 | Tumor volume, Day 22 [3, 5]: 2.74 ± 0.37 cm^3 | Tumor volume, Day 26 [3, 5]: 3.72 ± 0.44 cm^3 | Tumor volume, Day 12 ([3]; CCDTHT 4.6 mg/kg s.c. without or with PALP 15 mg/kg s.c., start of treatment): 0.46 ± 0.32 cm^3 | survival of leukemic mice ([3]; CCDTHT 4.6 mg/kg without or with PALP 15 mg/kg): 34.9 ± 6.6 days | Body weight, Day 14 ([4]; once daily): 25.1 ± 0.84 g | Body weight, Day 18 ([4]; once daily): 26.9 ± 0.93 g | Body weight, Day 21 ([4]; once daily): 28.8 ± 0.91 g | Body weight, Day 7 ([4]; start of treatment): 22.8 ± 0.82 g
